The target of experiment [1] is T1, human recombinant CBL-b (human Biotin CBL-b recombinant protein a.a. 39-426) (Homo sapiens, UniProt Q13191).
T1 construct: human Biotin CBL-b recombinant protein a.a; 39-426; Biotin (biotinylated); made in house
Description: Biochemical assay for CBL-b inhibition (ligand displacement TR-FRET). To be noted: 50 nM CBL-b, 0.3 μM Bodipy FL-Probe, read-out: IC50 (CBL-b inhibition, group). The format is binding. An outline of the steps: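 Biotinylated CBL-b (a.a. 39-426, 50 nM final) pre-incubated with compound 60 min at RT in HEPES/NaCl/Triton/BSA/TCEP buffer, then Bodipy FL probe (0.3 μM final) 60 min, then terbium-streptavidin 60 min. TR-FRET read at 665/615 nm; IC50 and % max inhibition from sigmoidal fits.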
On the technique in general: In TR-FRET formats the signal depends on donor and acceptor labels being close together.

For experiment [2], the system named is NFAT signaling pathway in Jurkat NFAT reporter cells. Description: Jurkat NFAT reporter assay. The format is cell-based. To be noted: Homo sapiens, 30 min with compound, then soluble anti-human CD3/CD28 antibody for 6 hours, luciferase readout, read-out: EC50 (Group). An outline of the steps:
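Jurkat cells bearing an NFAT-RE-driven luciferase reporter (1×10^5 per well) preincubated with Cbl-b inhibitor for 30 min, then stimulated 6 h with soluble anti-CD3/CD28. Luminescence read with Bio-Glo; values are fold change over anti-CD3/CD28-stimulated cells without inhibitor.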
(In general: In a reporter assay the amount or activity of a reporter protein is the signal.)

Structures are written as SMILES. Where only a bound is given, the exact number is not on record here.

Here are results for 26 molecules from US20260226073A1 (AURIGENE ONCOLOGY LIMITED, priority 2023, published 2026).

T1 sequence (Q13191 39-426): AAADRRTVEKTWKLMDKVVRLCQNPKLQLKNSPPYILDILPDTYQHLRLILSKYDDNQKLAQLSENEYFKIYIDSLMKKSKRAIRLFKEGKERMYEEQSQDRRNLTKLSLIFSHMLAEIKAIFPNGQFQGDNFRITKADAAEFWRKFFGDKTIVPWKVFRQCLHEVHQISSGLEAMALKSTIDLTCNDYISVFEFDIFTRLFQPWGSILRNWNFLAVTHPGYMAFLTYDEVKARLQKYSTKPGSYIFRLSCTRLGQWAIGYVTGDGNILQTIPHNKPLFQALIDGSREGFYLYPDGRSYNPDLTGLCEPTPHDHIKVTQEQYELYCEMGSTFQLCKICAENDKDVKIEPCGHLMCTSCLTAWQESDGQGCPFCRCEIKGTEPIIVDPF

For the molecule `Cn1cnnc1CC1(c2ccc3c(c2)C(=O)N(c2cc(CNCC4CCCO4)cc(Cl)n2)C3)COC1` (stereo not shown) [Compound 188, 2-(6-Chloro-4-((((tetrahydrofuran-2-yl)methyl)amino)methyl)pyridin-2-yl)-6-(3-((4-methyl-4H-1,2,4-triazol-3-yl)methyl)oxetan-3-yl)isoindolin-1-one], the IC50 (usually the concentration that inhibits the measured activity by half) in experiment [1] was below 80 nM. Besides, in experiment [2], the EC50 (as a rule, the concentration that produces a half-maximal response) is 300 to 1000 nM.
For the molecule `Cn1cnnc1CC1(c2ccc3c(c2)C(=O)N(c2cc(CNCC4CC4)cc(Cl)n2)C3)CC2(CCC2)C1` [Compound 255, 2-(6-Chloro-4-(((cyclopropylmethyl)amino)methyl)pyridin-2-yl)-6-(2-((4-methyl-4H-1,2,4-triazol-3-yl)methyl)spiro[3.3]heptan-2-yl)isoindolin-1-one], the IC50 in experiment [1] is below 80 nM. Further, the EC50 in experiment [2] was 1000 to 10000 nM.
As to `Cc1cc(C(C)(C)NCC2CC2)cc(N2Cc3ccc(-c4ccc(F)cc4-c4nncn4C)cc3C2=O)n1` [Compound 293, 2-(4-(2-((Cyclopropylmethyl)amino)propan-2-yl)-6-methylpyridin-2-yl)-6-(4-fluoro-2-(4-methyl-4H-1,2,4-triazol-3-yl)phenyl)isoindolin-1-one], the IC50 in experiment [1] is below 80 nM. Further, the concentration for a half-maximal effect (EC50) in experiment [2] fell in the range of 300 to 1000 nM.
Taken in the same sequence, the figures for `Cc1cc(CNCC2CC(F)(F)C2)cc(N2Cc3ccc(-c4ccc(Cl)cc4-c4nncn4C)cc3C2=O)n1` [Compound 279, 6-(4-Chloro-2-(4-methyl-4H-1,2,4-triazol-3-yl)phenyl)-2-(4-((((3,3-difluoro-cyclobutyl)methyl)amino)methyl)-6-methylpyridin-2-yl)isoindolin-1-one] were below 80 nM and below 300 nM.
`CC(CNCc1cc(Cl)nc(N2Cc3ccc(C4(Cc5nncn5C)COC4)cc3C2=O)c1)C(F)(F)F` (stereo not shown) [Compound 202, 2-(6-Chloro-4-(((3,3,3-trifluoro-2-methylpropyl)amino)methyl)pyridin-2-yl)-6-(3-((4-methyl-4H-1,2,4-triazol-3-yl)methyl)oxetan-3-yl)isoindolin-1-one]: the IC50 in experiment [1] was below 80 nM. In experiment [2], the EC50 was below 300 nM.
Taken in the same sequence, the figures for `Cn1cnnc1-c1cc(Cl)ccc1-c1ccc2c(c1)C(=O)N(c1cc(C(C)(C)NCC3CC3)cc(Cl)n1)C2` [Compound 275, 6-(4-Chloro-2-(4-methyl-4H-1,2,4-triazol-3-yl)phenyl)-2-(6-chloro-4-(2-((cyclopropylmethyl)amino)propan-2-yl)pyridin-2-yl)isoindolin-1-one] were below 80 nM and below 300 nM.
Taken in the same sequence, the figures for `Cc1cc(CNCC2CCCC2)cc(N2Cc3ccc(-c4ccc(F)cc4-c4nncn4C)cc3C2=O)n1` [Compound 329, 2-(4-(((Cyclopentylmethyl)amino)methyl)-6-methylpyridin-2-yl)-6-(4-fluoro-2-(4-methyl-4H-1,2,4-triazol-3-yl)phenyl)isoindolin-1-one] were below 80 nM and below 300 nM.
Taken in the same sequence, the figures for `Cn1cnnc1CC1(c2ccc3c(c2)C(=O)N(c2cc(CNCCC(F)(F)F)cc(Cl)n2)C3)CC(C#N)C1` (stereo not shown) [Compound 158, 3-(2-(6-Chloro-4-(((3,3,3-trifluoropropyl)amino)methyl)pyridin-2-yl)-3-oxoisoindolin-5-yl)-3-((4-methyl-4H-1,2,4-triazol-3-yl)methyl)cyclobutane-1-carbonitrile] were below 80 nM and 1000 to 10000 nM.
In the case of `CC(Cc1nncn1C)Nc1ccc2c(c1)C(=O)N(c1cc(CN3CCC[C@H](C)C3)cc(Cl)n1)C2` (stereo partly shown) [Compound 190], the IC50 in experiment [1] was below 80 nM. The EC50 in experiment [2] is 1000 to 10000 nM.
Taken in the same sequence, the figures for `C[C@H](NCC1CC(F)(F)C1)c1cc(Cl)nc(N2Cc3ccc(C4(Cc5nncn5C)COC4)cc3C2=O)c1` (single isomer, unassigned) [Compound 222] were below 80 nM and below 300 nM.
Turning to `Cn1cnnc1CC1(c2ccc3c(c2)C(=O)N(c2cc(CN4CCCC(F)(F)C4)cc(C(F)(F)F)n2)C3)COC1` [Compound 47, 2-(4-((3,3-Difluoropiperidin-1-yl)methyl)-6-(trifluoromethyl)pyridin-2-yl)-6-(3-((4-methyl-4H-1,2,4-triazol-3-yl)methyl)oxetan-3-yl)isoindolin-1-one], in experiment [1], the IC50 fell in the range of 80 to 300 nM. Besides, the concentration giving a half-maximal response (EC50) in experiment [2] was in the range of 1000 to 10000 nM.
In the case of `Cc1cc(CNCCCC(F)(F)F)cc(N2Cc3ccc(-c4ccc(F)cc4-c4nncn4C)cc3C2=O)n1` [Compound 328, 6-(4-Fluoro-2-(4-methyl-4H-1,2,4-triazol-3-yl)phenyl)-2-(6-methyl-4-(((4,4,4-trifluorobutyl)amino)methyl)pyridin-2-yl)isoindolin-1-one], in experiment [1], the IC50 is below 80 nM. In experiment [2], the EC50 was 300 to 1000 nM.
The matching figures for `CC(NCC1CC1(F)F)c1cc(Cl)nc(N2Cc3ccc(C4(Cc5nncn5C)COC4)cc3C2=O)c1` (stereo not shown) [Compound 199, 2-(6-Chloro-4-(1-(((2,2-difluorocyclopropyl)methyl)amino)ethyl)pyridin-2-yl)-6-(3-((4-methyl-4H-1,2,4-triazol-3-yl)methyl)oxetan-3-yl)isoindolin-1-one]: below 80 nM and below 300 nM.
The matching figures for `Cc1cc(CNC(C2CC2)C2CC2)cc(N2Cc3ccc(-c4ccc(F)cc4-c4nncn4C)cc3C2=O)n1` [Compound 298, 2-(4-(((Dicyclopropylmethyl)amino)methyl)-6-methylpyridin-2-yl)-6-(4-fluoro-2-(4-methyl-4H-1,2,4-triazol-3-yl)phenyl)isoindolin-1-one]: below 80 nM and below 300 nM.
Taken in the same sequence, the figures for `C[C@@H]1C[C@H](C)CN(Cc2cc(N3Cc4ccc(-c5ccccc5-c5nncn5C)cc4C3=O)nc(C(F)(F)F)c2)C1` [Compound 117, 2-(4-(((3S,5R)-3,5-Dimethylpiperidin-1-yl)methyl)-6-(trifluoromethyl)pyridin-2-yl)-6-(2-(4-methyl-4H-1,2,4-triazol-3-yl)phenyl)isoindolin-1-one] were 80 to 300 nM and 1000 to 10000 nM.
For `CCC(C)NCc1cc(C)nc(N2Cc3ccc(-c4ccc(F)cc4-c4nncn4C)cc3C2=O)c1` (stereo not shown) [Compound 295, 2-(4-((sec-Butylamino)methyl)-6-methylpyridin-2-yl)-6-(4-fluoro-2-(4-methyl-4H-1,2,4-triazol-3-yl)phenyl)isoindolin-1-one], in experiment [1], the IC50 was below 80 nM. The EC50 in experiment [2] was below 300 nM.
The matching figures for `C[C@H]1CCCN(Cc2cc(Cl)nc(N3Cc4ccc([C@H](C)Cc5nncn5C)cc4C3=O)c2)C1` (single isomer, unassigned) [Compound 90]: below 80 nM and below 300 nM.
With `Cn1cnnc1-c1ccccc1-c1ccc2c(c1)C(=O)N(c1cc(CNCCC(F)(F)F)cc(Cl)n1)C2` [Compound 116, 2-(6-Chloro-4-(((3,3,3-trifluoropropyl)amino)methyl)pyridin-2-yl)-6-(2-(4-methyl-4H-1,2,4-triazol-3-yl)phenyl)isoindolin-1-one], the IC50 in experiment [1] is below 80 nM. The EC50 in experiment [2] fell in the range of 1000 to 10000 nM.
Regarding `CC1CN(Cc2cc(Cl)nc(N3Cc4ccc(C5(Cc6nncn6C)COC5)cc4C3=O)c2)CCC1(F)F` (stereo not shown) [Compound 178], the IC50 in experiment [1] was below 80 nM. The EC50 in experiment [2] fell in the range of 300 to 1000 nM.
Taken in the same sequence, the figures for `Cn1cnnc1CC1(c2ccc3c(c2)C(=O)N(c2cc(CNC4CC(F)(F)C4)cc(C(F)(F)F)n2)C3)COC1` [Compound 74, 2-(4-(((3,3-Difluorocyclobutyl)amino)methyl)-6-(trifluoromethyl)pyridin-2-yl)-6-(3-((4-methyl-4H-1,2,4-triazol-3-yl)methyl)oxetan-3-yl)isoindolin-1-one] were 80 to 300 nM and 1000 to 10000 nM.
The matching figures for `C[C@@H](Cc1nncn1C)c1ccc2c(c1)C(=O)N(c1cc(CNCCC(F)(F)F)cc(Cl)n1)C2` (single isomer, unassigned) [Compound 163]: below 80 nM and 300 to 1000 nM.
The matching figures for `C[C@H]1CCCN(Cc2cc(N3Cc4ccc(C5(Cc6nncn6C)COC5)cc4C3=O)cc(C(F)(F)F)n2)C1` [Compound 17, (S)-6-(3-((4-Methyl-4H-1,2,4-triazol-3-yl)methyl)oxetan-3-yl)-2-(2-((3-methyl-piperidin-1-yl)methyl)-6-(trifluoromethyl)pyridin-4-yl)isoindolin-1-one]: 300 to 5000 nM and 1000 to 10000 nM.
Consider `Cn1cnnc1CC1(c2ccc3c(c2)C(=O)N(c2cc(CNCC4CCC4)cc(Cl)n2)C3)CCC1` [Compound 168], for which, in experiment [1], the IC50 is below 80 nM. Besides, in experiment [2], the EC50 is below 300 nM.
The matching figures for `Cn1cnnc1CC1(c2ccc3c(c2)C(=O)N(c2cc(CN4CCC5(CC4)CC5)cc(C(F)(F)F)n2)C3)COC1` [Compound 44, 2-(4-((6-Azaspiro[2.5]octan-6-yl)methyl)-6-(trifluoromethyl)pyridin-2-yl)-6-(3-((4-methyl-4H-1,2,4-triazol-3-yl)methyl)oxetan-3-yl)isoindolin-1-one]: 80 to 300 nM and 300 to 1000 nM.
The matching figures for `Cc1cc(C(C)NCC2CCC2)cc(N2Cc3ccc(-c4ccc(Cl)cc4-c4nncn4C)cc3C2=O)n1` (stereo not shown) [Compound 278, 6-(4-Chloro-2-(4-methyl-4H-1,2,4-triazol-3-yl)phenyl)-2-(4-(1-((cyclobutyl-methyl)amino)ethyl)-6-methylpyridin-2-yl)isoindolin-1-one]: below 80 nM and below 300 nM.
Take `Cc1cc(CNCC(C)C)cc(N2Cc3ccc(-c4ccc(F)cc4-c4nncn4C)cc3C2=O)n1` [Compound 305]: in experiment [1], the IC50 is below 80 nM. The EC50 in experiment [2] was below 300 nM.
